Test results published in patent US7348401B2, “Peptides that inhibit complement activation” (priority 2003, dated 2008).

What follows are substances tested on classical pathway; antibody sensitized sheep erythrocyte cells (assay: Classical pathway hemolytic assay (RBC hemolysis assay)). Settings: not given.
Type: cell-based, human
Description: Inhibition of the classical pathway by the peptides was measured using a standard hemolysis assay, which monitors the lysis of sheep erythrocytes as a result of terminal complex formation (see e.g. FIG. 1, FIG. 10). Various concentrations of peptide were incubated with 50 μL pooled human plasma (diluted 1:30 with GVB^++), 5×10^7 antibody sensitized sheep erythrocyte cells, and GVB^++ buffer to a final volume of 200 μL. The reaction was incubated at 37° C. for one hour and centrifuged. The percentage of lysis was determined by measuring the optical density of the supernatant at 414 nm. 100% lysis was determined by the optical density at 414 nm of the supernatant from a control sample consisting of 5×10^7 antibody sensitized sheep erythrocyte cells in water. The percent inhibition was calculated as the (% lysisno peptide−% lysispeptide)/% lysisno peptide×100.

Q: Which “inhibitory activity in RBC hemolysis assay compared with parent peptide” value does the source give for “112: Peptide 46 with a tri-peptide substituted for X1, third amino acid glutamic acid (EAEVRWEFPL; complement inhibitor) [Peptide 112]” here?
A: The value was “enhanced the levels of inhibitory activity”.

Q: How did the “inhibitory activity in RBC hemolysis assay compared with parent peptide” value turn out when “115: Peptide 46 with a tri-peptide substituted for X1, third amino acid glutamic acid (LAEVRWEFPL; complement inhibitor) [Peptide 115]” was run?
A: The value was “enhanced the levels of inhibitory activity”.

Q: For “119: Peptide 46 with a tri-peptide substituted for X1, third amino acid glutamic acid (TTEVRWEFPL; complement inhibitor) [Peptide 119]”, which “inhibitory activity in RBC hemolysis assay compared with parent peptide” value is on record?
A: The value was “enhanced the levels of inhibitory activity”.

Q: Which “inhibitory activity in RBC hemolysis assay compared with parent peptide” value does the source give for “120: Peptide 46 with a tri-peptide substituted for X1, third amino acid glutamic acid (TLEVRWEFPL; complement inhibitor) [Peptide 120]” here?
A: The value was “enhanced the levels of inhibitory activity”.

Q: With “Peptide 46: 10-mer: Peptide 13 with the two residues removed from the carboxyl terminus (TQDNRWEFPL; complement inhibitor)” as the substance, how does the “inhibitory activity in RBC hemolysis assay compared with parent peptide” value read?
A: The value was “appears to increase the activity”.

Q: Which “inhibitory activity in RBC hemolysis assay compared with parent peptide” value does the source give for “Peptide 53: Peptide 50 with glutamic acid substituted for the aspartic acid at position 1 (ENRWEFPL; complement inhibitor)” here?
A: Its value is “appeared to increase the inhibitory activity”.

Q: With “Peptide 54: Peptide 50 with asparagine substituted for the aspartic acid residue (NNRWEFPL; complement inhibitor)” as the substance, how does the “inhibitory activity in RBC hemolysis assay compared with parent peptide” value read?
A: Its value is “little effect on the inhibitory activity”.

Q: How did the “inhibitory activity in RBC hemolysis assay compared with parent peptide” value turn out when “Peptide 55: Peptide 50 with arginine at position 3 changed to lysine (DNKWEFPL; complement inhibitor)” was run?
A: Its value is “lowers the inhibiting activity”.

Q: “Peptide 56: Peptide 50 with arginine at position 3 changed to histidine (DNHWEFPL; complement inhibitor)” was tested. Which “inhibitory activity in RBC hemolysis assay compared with parent peptide” value did it give?
A: Its value is “lowers the inhibiting activity”.

Q: “Peptide 60: Peptide 50 with tryptophan replacing the phenylalanine at X4 (DNRWEWPL; complement inhibitor)” was tested. Which “inhibitory activity in RBC hemolysis assay compared with parent peptide” value did it give?
A: The value was “more severe losses”.

Q: With “Peptide 61: Peptide 50 with tyrosine substituted for the phenylalanine at position 6 (DNRWEYPL; complement inhibitor)” as the substance, how does the “inhibitory activity in RBC hemolysis assay compared with parent peptide” value read?
A: Its value is “minimal loss of activity”.

Q: “Peptide 64: Peptide 50 with leucine replacing the phenylalanine at X4 (DNRWELPL; complement inhibitor)” was tested. Which “inhibitory activity in RBC hemolysis assay compared with parent peptide” value did it give?
A: Its value is “more severe losses”.

Q: With “Peptide 83: Peptide 46 derivative with a glutamic acid at X1; listed in both the X2 and X1 series (AAEVRWEFPL; complement inhibitor)” as the substance, how does the “inhibitory activity in RBC hemolysis assay compared with parent peptide” value read?
A: Its value is “highest level of inhibitory activity”.

Q: For “Peptide 84: Peptide 46 derivative with a glutamic acid at X1 (TAEVRWEFPL; complement inhibitor)”, which “inhibitory activity in RBC hemolysis assay compared with parent peptide” value is on record?
A: Its value is “highest level of inhibitory activity”.

Q: How did the “inhibitory activity in RBC hemolysis assay compared with parent peptide” value turn out when “Peptide 90: Peptide 46 derivative with isoleucine at X1 (TAIVRWEFPL; complement inhibitor)” was run?
A: Its value is “almost comparable activity”.

Q: Which “inhibitory activity in RBC hemolysis assay compared with parent peptide” value does the source give for “Peptide 91: Peptide 46 derivative with leucine at X1 (TALVRWEFPL; complement inhibitor)” here?
A: Its value is “almost comparable activity”.

Q: With “Peptide 95: Peptide 46 derivative with proline at X1 (TAPVRWEEPL; complement inhibitor)” as the substance, how does the “inhibitory activity in RBC hemolysis assay compared with parent peptide” value read?
A: The value was “almost comparable activity”.

Same assay, conditions: listed as SEQ ID NO 84

Q: “Peptide 84: Peptide 46 derivative with a glutamic acid at X1 (TAEVRWEFPL; complement inhibitor)” was tested. Which “inhibitory activity in RBC hemolysis assay compared with parent peptide” value did it give?
A: The value was “enhanced the levels of inhibitory activity”.

Same assay, conditions: relative to Peptide 13

Q: How did the “original activity retained in RBC hemolysis assay” value turn out when “Peptide 50: eight-mer: Peptide 13 with two amino acids removed from both ends (DNRWEFPL; complement inhibitor)” was run?
A: Its value is 100%.

Each substance was assayed on classical pathway (assay: Classical pathway component assay (immune complex, ELISA for C5a, SC5b-9, C3a)). Settings: immune complex-classical pathway assay, compared with Peptide 7.
Type: biochemical, human
Description: The inhibition of the classical pathway by the peptides was measured by incubating human plasma in the presence and absence of peptides with an immune complex generated on a surface and then monitoring for the production of complement components C5a, SC5b-9, and C3a. To generate the immune complex, a 10 mg/mL solution of BSA in PBS was incubated at 56° C. for 30 minutes and then used to coat the surface of a microplate by diluting to 50 μg/mL at pH 9.6 and incubating for one hour at 37° C. The plate was washed and then incubated with 18 μg/mL mouse anti-BSA IgG2a (Sigma) for one hour at 37° C. Pooled human plasma with and without various concentrations of peptide were incubated for 30 minutes at 37° C. with the generated immune complex and the reaction was stopped with the addition of EDTA. The plasma samples were then analyzed with commercially available ELISA's for the production of C5a (Pharmingen), SC5b-9 (Quidel), and C3a (Quidel).

Q: Which “complement inhibiting activity (C5a and SC5b-9 production), alanine scan of Peptide 7” value (“complement inhibiting activity” for short) does the source give for “18: Peptide 7 with alanine substituted for a residue L on the amino-terminal side of the consensus sequence (SFNDALWRWEWP; complement inhibitor) [Peptide 18]” here?
A: Its value is “slightly greater inhibitory activity”.

Q: Which “complement inhibiting activity” value does the source give for “19: Peptide 7 with alanine substituted for a residue L on the amino-terminal side of the consensus sequence (SFNDLAWRWEWP; complement inhibitor) [Peptide 19]” here?
A: The value was “slightly greater inhibitory activity”.

Q: “20: Peptide 7 with alanine substituted for residue W on the amino-terminal side of the consensus sequence (SFNDLLARWEWP; complement inhibitor) [Peptide 20]” was tested. Which “complement inhibiting activity” value did it give?
A: The value was “slightly greater inhibitory activity”.
